Data: patent US20040057908A1, “Oral compositions and use thereof” (priority 2003, published 2004)
Converted amounts (≈) assume the structure as drawn. “And” between values parts separate entries of the source, which are not always exact repeats. Equal values may be shown once. Read-outs that look alike come from different tables or passages of the source. Marks after values point to notes of the source that are not given here.

What was measured:
streptococcal GTFs [1] = tested on: T1, streptococcal GTFs; test: GTF activity adsorbed onto sHA surface, all GTFs stated together; format: biochemical, Streptococcus mutans, S. sanguinis; conditions: 1.33 mM
T1 construct: Streptococcus milleri KSB8, which harbors the gtfB gene from S. mutans GS-5 (for GTF B production)
Description: Glucosyltransferase activity was measured by the incorporation of [^14C-glucose] from labeled sucrose (NEN Research Products, Boston, Mass.) into glucans (Germaine et al., 1974; Venkitaraman et al., 1995). The GTF enzyme added to each sample for all assays was equivalent to the amount required to incorporate 1.0-1.5 μmol of glucose over the four hours reaction (1.0-1.5 units).
For surface assays, the GTFs were adsorbed to hydroxyapatite beads coated with clarified whole saliva (free of GTF activity), as detailed elsewhere (Koo et al., 2000c; Schilling and Bowen, 1988, Venkitaraman et al., 1995). The saliva-coated hydroxyapatite (sHA) beads were exposed to sufficient enzyme to saturate the surface as determined experimentally. Following the adsorption of the enzyme, the beads were washed 3 times with buffer to remove the loosely bound material and exposed to 300 μl of the two-fold dilution series of test compounds (or control) for 30 min. at the same concentrations described above. The beads were washed and exposed to 300 μl [^14C-glucose]-sucrose substrate (100.0 mmol/l sucrose, final concentration). The radiolabeled glucan formed was collected and quantified by scintillation counting (Germaine et al., 1974; Venkitaraman et al., 1995). All the solution and surface assays were done in quadruplicate in at least 3 different experiments. […]

[2] = tested on: S. mutans UA159 and S. sobrinus 6715 biofilms; test: Time-kill assay in 5-day-old biofilms; format: cell-based; conditions: for antibacterial activity against mutans streptococci biofilms (in words): 1.33 mM (fluoride 250 ppm); for decrease in viable counts of biofilms: 1.33 mM, after 2-4 h incubation
Description: Cells of mutans streptococci were grown in tryptone-yeast extract broth with addition of 1% (w/v) sucrose at 37° C. and 5% CO2. […] The killing assays were performed according to Phan et al. (2000). […] The homogenized suspension was serially diluted (10^1 to 10^4) and plated on tryptic soy agar or blood agar by means of a spiral plater (Autoplate model 3000, Spiral Biotech, Inc., Bethesda, Md). […] Killing curves were constructed by plotting log10 CFU/ml versus time over 4 h. All the assays were carried out in quadruplicate on at least 3 different occasions. Bactericidal effect was defined as a ≧3 log10 decreases in the CFU/ml from initial viable counts, at time zero. The potential for drug carry-over to produce falsely low viability counts was minimized by dilution of inocula and plating of small volumes of diluted samples (50 μl).

[3] = tested on: Mutans Streptococci Strains; test: MIC and MBC, broth dilution, all strains stated together; format: cell-based, S. mutans (GS-5 and UA159) and S. sobrinus 6715; conditions: Streptococcus mutans; for MIC: read-out: MIC
Description: (§1) The minimum inhibitory concentration (MIC) and minimum bactericidal concentration (MBC) were determined for each test compound according to the National Committee for Clinical Laboratory Standards guidelines (Tentative standard M26-T, 1992; NCCLS Publication No. M7-A5, 2000) and Koo et al. (2000b). The broth microdilution and macrodilution methods (in TSB) were used for the antibacterial tests. The starting inoculum was 5×10^5 CFU/ml and the concentrations of test compounds ranged from 15.6 to 500 μM (two-fold dilutions). The MICs and MBCs were determined in quadruplicate in at least 3 different experiments.

mutans streptococci = test: Time-kill studies, broth macrodilution; format: cell-based, S. mutans GS-5 and UA159, S. sobrinus 6715
Description: For the compound with highest antibacterial activity, the time kill studies were performed by broth macrodilution method (National Committee for Clinical Laboratory Standards, Tentative standard M26-T, 1992). The starting inoculum of S. mutans GS-5 and UA159, and S. sobrinus 6715 was 1-5×10^6 CFU/ml. The final concentration of the antibacterial agent was 4 times MIC (or MBC values). Tubes containing the microorganisms and the test compound in TSB were incubated in 5% CO2 at 37° C.; samples were removed for viable counts at 0, 30 min., 1, 2, 4, 8, and 24 h. Serial dilutions (10^−1 to 10^−4) were prepared in sterile 0.9% sodium chloride solution. The diluted sample (50 μl) was plated on to tryptic soy agar by means of a spiral plater (Autoplate model 3000, Spiral Biotech, Inc., Bethesda, Md.). The plates were incubated in 5% CO2 at 37° C. for 48 h, when the number of colonies was determined. Killing curves were constructed by plotting log10 CFU/ml versus time over 24 h. All the assays were done in quadruplicate on at least 3 occasions. Bactericidal effect was defined as a ≧3 log10 decreases in the CFU/ml from the original inoculum. The potential for drug carry-over to produce falsely low viability counts was minimized by dilution of inocula and plating of small volumes of diluted samples (50 μl). In addition, no evidence of drug carry-over was detected at the lowest dilution used for plating (10^−1).

[4] = tested on: Streptococcus sobrinus 6715; test: Rat caries experiment: S. sobrinus recovered from the jaws; format: in vivo, Sprague Dawley rats; conditions: rats, topical twice daily, five weeks; 1.33 mM (fluoride 250 ppm); means (SD)
Description: (§2) Seven litters of ten female Sprague Dawley rats aged 14 days were purchased with their dams from Charles River (Kingston, N.Y., USA). […] The experiment proceeded for five weeks, at which time the animals were killed by CO2 asphyxiation. The lower left jaw was aseptically dissected, suspended in 5.0 mL of sterile saline solution, and sonicated (three 10-second pulses with 5-second intervals at 30 watts, Branson Sonifier 450). The suspension was plated on mitis salivarius agar plus streptomycin to estimate S. sobrinus population and on blood agar to determine total cultivable flora (TCF). […] The determination of caries score was blind by codification of the jaws and was done by 1 calibrated examiner. […] The level of significance was 5%.

dental caries = test: Rat caries experiment: caries scores (Larson's modification of Keyes' system); format: in vivo, Sprague Dawley rats; conditions: for smooth-surface caries severity scores versus control (in words): Ds and Dm levels, tt-farnesol Dm only; for smooth-surface caries severity scores versus control (in words) / reduction of the incidence of smooth surface caries compared to control / incidence and severity of sulcal-surface caries (in words): p<0.05; for smooth surface caries, Keyes's score / reduction of the incidence of smooth surface caries compared to control / incidence and severity of sulcal-surface caries (in words): rats; for smooth surface caries, Keyes's score / reduction of the incidence of smooth surface caries compared to control: topical twice daily, five weeks
Description: as §2

streptococcal GTFs [5] = tested on: T1, streptococcal GTFs; test: GTF activity in solution, all GTFs (B, C, D, Ss) stated together; format: biochemical, Streptococcus mutans, S. sanguinis; conditions: for inhibitory effects on the activities of GTFs (in words): 1.33 mM (fluoride 250 ppm), solution and sHA surface
Description: The GTF enzyme added to each sample for all assays was equivalent to the amount required to incorporate 1.0-1.5 μmol of glucose over the four hours reaction (1.0-1.5 units).
The samples were incubated 37° C. with rocking for 4 h.
For this assay, a one-way layout experimental design was used in 4×2×7 factorial scheme (enzyme×state×dose). An analysis of variance was carried out and qualitative treatments were compared using Tukey test at level of 5% of significance (p<0.05). A non-linear regression was applied in order to evaluate effects of different concentrations.

streptococci = test: Membrane disruption seen in the phase-contrast microscope; format: cell-based
[6] = tested on: Streptococcus mutans GS-5; test: MIC and MBC, broth dilution; format: cell-based
Description: as §1

[7] = tested on: Streptococcus sobrinus 6715; test: MIC and MBC, broth dilution; format: cell-based
Description: as §1

[8] = tested on: Streptococcus mutans UA 159; test: MIC and MBC, broth dilution; format: cell-based
Description: as §1

S. mutans strains = test: MIC and MBC, broth dilution, S. mutans strains stated together; format: cell-based, S. mutans (GS-5 and UA159)
Description: as §1

biofilms = test: Formation of biofilms (continued research); format: cell-based

Structure (SMILES): [H]/N=C(\N/C(=N/[H])NCCCCCCNC(=N)NC(=N)Nc1ccc(Cl)cc1)Nc1ccc(Cl)cc1 [Chlorhexidine, chlorhexidine, reference compound]
- inhibition of GTFs on a surface (streptococcal GTFs [1]): 10-20%
- antibacterial activity against mutans streptococci biofilms (in words) [2]: not bactericidal
- decrease in viable counts of biofilms [2]: 2-3 log10 CFU/ml
- MIC ([3]; all strains tested (S. mutans GS-5, UA159, S. sobrinus 6715)): 1.1 to 2.2 µM
- MIC ([3]; all strains tested): 1 to 2 µg/mL
- MBC ([3]; mutans streptococci strains): 8.9 µM and 8 µg/mL
- incubation time to bactericidal effects (mutans streptococci; 8.9 μM (MBC), mutans streptococci strains): 8 h
- Infection by S. sobrinus, % [4]: 34.1 (10.8)^b %
- smooth-surface caries severity scores versus control (in words) (dental caries): significantly lower
- smooth surface caries, Keyes's score (dental caries): 2.0±1.9
- reduction of the incidence of smooth surface caries compared to control (dental caries): 75%
- incidence and severity of sulcal-surface caries (in words) (dental caries): reduced
- inhibition of GTFs in solution (streptococcal GTFs [5]; 1.33 mM): 30-45%
- inhibitory effects on the activities of GTFs (in words) (streptococcal GTFs [5]): either negligible or moderate inhibitory effects

Structure (SMILES): [F-].[Na+] [Fluoride, sodium fluoride]
- antibacterial activity against mutans streptococci biofilms (in words) [2]: devoid of detectable antimicrobial and anti-GTF activity
- antibacterial activity against mutans streptococci biofilms (in words) ([2]; listed as fluoride): negligible antibacterial activity
- Infection by S. sobrinus, % [4]: 39.8 (13.2)^ab %
- smooth-surface caries severity scores versus control (in words) (dental caries): significantly lower
- smooth surface caries, Keyes's score (dental caries): 2.3±3.0
- reduction of the incidence of smooth surface caries compared to control (dental caries): 72%
- incidence and severity of sulcal-surface caries (in words) (dental caries): reduced
- inhibitory effects on the activities of GTFs (in words) (streptococcal GTFs [5]): devoid of detectable antimicrobial and anti-GTF activity
- inhibitory effects on the activities of GTFs (in words) (streptococcal GTFs [5]; listed as fluoride): either negligible or moderate inhibitory effects

Structure (SMILES): CC(C)=CCC/C(C)=C/CC/C(C)=C/CO [tt-Farnesol]
- concentration giving visible membrane disruption of streptococci (streptococci): > 10 mM
- MBC [6]: 500 µM (≈ 111 µg/mL)
- MIC [6]: 125 µM (≈ 27.8 µg/mL)
- MBC ([7]; S. sobrinus 6715): 56 µg/mL
- MIC ([7]; S. sobrinus 6715): 14 µg/mL
- MBC ([7]; Streptococcus sobrinus 6715): 250 µM
- MIC ([7]; Streptococcus sobrinus 6715): 62.5 µM
- MBC [8]: 500 µM (≈ 111 µg/mL)
- MIC [8]: 125 µM (≈ 27.8 µg/mL)
- decrease in viable counts of biofilms [2]: 1 log10 CFU/ml
- MBC (S. mutans strains): 500 μM and 112 μg/ml
- MIC (S. mutans strains): 125 μM and 28 μg/ml
- incubation time to bactericidal effects (≧3 log decrease in CFU/ml) (mutans streptococci; four times the MIC (or MBC), S. sobrinus 6715 and S. mutans strains): 4-8 h
- reduction of viable counts (mutans streptococci; four times the MIC (or MBC), within 30 min. to 1 h of incubation): 1 log of CFU/ml
- Infection by S. sobrinus, % [4]: 44.8 (8.2)^a %
- formation of biofilms (in words) (biofilms): inhibits formation of biofilms
- smooth-surface caries severity scores versus control (in words) (dental caries): significantly lower
- inhibitory effects on the activities of GTFs (in words) (streptococcal GTFs [5]): either negligible or moderate inhibitory effects
- effects on enzyme activity (GTFs) (streptococcal GTFs [5]; 1.33 mM, solution or surface not specified): 10-20%
